# Assay results: patent US20030021795A1, “Use of coiled-coil structural scaffold to generate structure-specific peptides” (priority 2000, published 2003)
# Where two headings read alike, the source gives them in different places. Square brackets hold non-standard residues; d marks the D form. Ends that are not written are not given here. Nle = CCCC[C@H](N)C(=O)O
# Tests used:
# anti-Strep serum = type: binding, mouse
# [1] = CD spectroscopy (helical content/conformation of peptides); type: physicochemical; settings: for conformation by CD in benign buffer: benign buffer (50 mM KH2PO4, 50 mM KCl, pH 7.0), absence of TFE
# Procedure: Circular dichroism (CD) spectroscopy was performed using a Jasco J-500C spectropolarimeter (Jasco, Easton, Md.) equipped with a Jasco DP-500N data processor. A 10-fold dilution of an ˜[…] stock solution of the disulfide-linked peptide was loaded into a 0.02 cm fused silica cell and ellipticity scanned from 190 to 250 nm. […] A Lauda water bath (model RMS, Brinkmann Instruments, Rexdale, Ont.) was used to control the temperature of the cell. CD spectra were the average of four scans obtained by collecting data at 0.1 nm intervals from 250 to 190 nm.
# [2] = Thermal denaturation monitored by [θ]222; type: physicochemical
# Source text: The stability of the peptides may be determined by thermal denaturation assays or chemical denaturation assays such as the guanidine chloride denaturation assay. Such assays are known to those skilled in the art. The stability of the peptides may also be indirectly assessed by inhibition ELISA, wherein the ability of a peptide to inhibit the interaction between an antigen and an antibody serves as an indicator of how stable the peptide is in assuming the necessary conformation to compete with the antigen for the antibody.
# In order to determine the stability of CVX0270, a thermal denaturation study was undertaken.
# [3] = tested on: Streptococcus pneumoniae serotypes (1, 3, and 5); test: Opsonization assay with antiserum; type: cell-based
# [4] = tested on: Coiled-Coil Strep Antigen (Strep-BSA coating antigen); type: in vivo, Balb/c mice; settings: for Murine Sera (Day 49) OD 405 nm, Strep-BSA coating antigen: immunogen dose 20 μg
# [5] = tested on: Coiled-Coil Strep Antigen; test: Isotyping ELISA of mouse serum antibodies after i.p. immunization; type: in vivo, Balb/c mice; settings: immunogen dose 20 μg
# [6] = tested on: Streptococcus pneumoniae serotype 5; type: cell-based; settings: antiserum Day 49; immunogen dose 20 μg
# [7] = tested on: Streptococcus pneumoniae serotype 3; type: cell-based; settings: antiserum Day 49; immunogen dose 20 μg
# [8] = tested on: Streptococcus pneumoniae serotype 1; type: cell-based; settings: antiserum Day 49; immunogen dose 20 μg
substance,measurement,setting,value
Acetyl-CN1eGEIEALKKKIEELSDKIDELEKEIK-amide [CVX0270],inhibition of anti-Strep serum binding (inhibition ELISA),anti-Strep serum,significant inhibition
same,ratio of the molar ellipticity at 222 and 208 ([θ]222/[θ]208),[1]; benign conditions,greater than 1.02
same,conformation by CD under aqueous conditions,"[1]; benign conditions (50 mM KH2PO4, 100 mM KCl, pH 7.0)",highly helical and found predominantly in the coiled-coil conformation
same,molar ellipticity at 222 nm ([θ]222),"[1]; benign conditions (50 mM KH2PO4, 100 mM KCl, pH 7.0), 20° C.",−29800
same,helical content,"[1]; benign conditions (50 mM KH2PO4, 100 mM KCl, pH 7.0), 20° C., versus theoretical [θ]222 −33900",88%
same,helical content,[1]; in the presence of 50% TFE,101%
same,stability in thermal denaturation experiment,[2],very stable
same,% of original helicity retained,[2]; at 75° C.,77%
CN1eG IEELEKK ITELKQK IDALENQ IHRLEQE IKELDES (C[Nle]GIEELEKKITELKQKIDALENQIHRLEQEIKELDES) [test peptide],conformation by CD in benign buffer,[1],exists in helical form even in benign buffer
same,stability in thermal denaturation experiment,[2],much more stable than the native control
CN1eG LEEAEKK ATEAKQK VDALENQ VHRLEQE LKEIDES (C[Nle]GLEEAEKKATEAKQKVDALENQVHRLEQELKEIDES) [native control],conformation by CD in benign buffer,[1],needs the presence of TFE to form a helical structure
EEESDKKDEEDAEKAE [Strep #2],inhibition of anti-Strep serum binding (inhibition ELISA),anti-Strep serum,no inhibition
EIEALKKKIEELSDKIDELEKEIK [Strep #1],inhibition of anti-Strep serum binding (inhibition ELISA),anti-Strep serum,Inhibition was also seen
TT: unconjugated tetanus toxoid carrier protein,reduction in colony forming units by antisera,[3],Little or no reduction in colony forming units
same,antibody titers to the Strep hapten,"[4]; 20 μg, 10 μg and 5 μg doses",did not elicit any antibodies
same,"Murine Sera (Day 49) OD 405 nm, Strep-BSA coating antigen",[4]; serum dilution 1:2000,0.11 OD 405 nm
same,"Murine Sera (Day 49) OD 405 nm, Strep-BSA coating antigen",[4]; serum dilution 1:4000,0.04 OD 405 nm
same,"Murine Sera (Day 49) OD 405 nm, Strep-BSA coating antigen",[4]; serum dilution 1:8000,0.01 OD 405 nm
same,"Murine Sera (Day 49) OD 405 nm, Strep-BSA coating antigen",[4]; serum dilution 1:16000,0.06 OD 405 nm
same,"Murine Sera (Day 49) OD 405 nm, Strep-BSA coating antigen",[4]; serum dilution 1:32000,0.00 OD 405 nm
same,"Murine Sera (Day 49) OD 405 nm, Strep-BSA coating antigen",[4]; serum dilution 1:64000,0.00 OD 405 nm
same,"Murine Sera (Day 49) OD 405 nm, Strep-BSA coating antigen",[4]; serum dilution 1:128000,0.00 OD 405 nm
same,"Murine Sera (Day 49) OD 405 nm, Strep-BSA coating antigen",[4]; serum dilution 1:256000,0.00 OD 405 nm
same,Isotype IgG1,[5]; sera day 6,0.06 O.D. 405 nm
same,Isotype IgG2a,[5]; sera day 6,0.02 O.D. 405 nm
same,Isotype IgG2b,[5]; sera day 6,0.01 O.D. 405 nm
same,Isotype IgG3,[5]; sera day 6,0.01 O.D. 405 nm
same,Isotype IgG1,[5]; sera day 14,0.05 O.D. 405 nm
same,Isotype IgG2a,[5]; sera day 14,0.00 O.D. 405 nm
same,Isotype IgG2b,[5]; sera day 14,0.00 O.D. 405 nm
same,Isotype IgG3,[5]; sera day 14,0.01 O.D. 405 nm
same,Isotype IgG1,[5]; sera day 35,0.08 O.D. 405 nm
same,Isotype IgG2a,[5]; sera day 35,0.01 O.D. 405 nm
same,Isotype IgG2b,[5]; sera day 35,0.01 O.D. 405 nm
same,Isotype IgG3,[5]; sera day 35,0.01 O.D. 405 nm
same,Isotype IgG1,[5]; sera day 49,0.44 O.D. 405 nm
same,Isotype IgG2a,[5]; sera day 49,0.03 O.D. 405 nm
same,Isotype IgG2b,[5]; sera day 49,0.02 O.D. 405 nm
same,Isotype IgG3,[5]; sera day 49,0.05 O.D. 405 nm
same,Percent Reduction of CFU Type 5,[6],7%
same,Percent Reduction of CFU Type 3,[7],6%
same,Percent Reduction of CFU Type 1,[8],7%
